The source of these data is PubChem BioAssay (NCI).

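The compound was tested at five concentrations on cells cultured in 96-well plates, with a 48-hour exposure period. GI50 marks 50% less growth. Definition used: TGI = concentration required for complete inhibition of growth.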

The test system of one assay is HCC-2998 colon. Nature of the assay: NCI tumour cell line growth inhibition, 48 h.
`COC1(OC)CCC2C1C1CCC(OC)(OC)C21` (stereo unspecified) had a TGI of over 50 µM.
`C=C(CN1CCN(c2ccc(Cl)cc2F)CC1)c1ccc(C(=O)Nc2ccccc2N)cc1`: the GI50 was 3.84 µM and the TGI is over 60.5 µM.
In turn, `COc1cc2c(cc1OC)-c1c3cc(O)ccc3nn[n+]1CC2` registered a TGI of over 100 µM.
Regarding `CCCCC(=O)OCC(=O)[C@]1(O)Cc2c(O)c3c(c(O)c2[C@@H](OC2CC(NC(=O)C(F)(F)F)C(O)C(C)O2)C1)C(=O)c1c(OC)cccc1C3=O` (stereo partly specified), the TGI came out at 3.81 µM.
Still for that read-out and setting: the value for `C/C(CC(=O)CCC(=O)Nc1cccc(C(F)(F)F)c1)=N\NC(=O)NN` was over 100 µM; that for `CCN(CCO)CC1CCCC2CCCCC21` (stereo unspecified) was over 100 µM.
For `COc1ccccc1C12OC(=O)C1(C)Oc1ccccc1C2=O` (stereo unspecified), the TGI was over 100 µM.
On the same count and under the same terms, for `O=C1C=C(Cl)C(=O)C(c2ccc(Cl)cc2)=C1` the value was 34.2 µM.
Turning to `CCCCOC(=O)C1OC(O[C@H]2CCC3(C)C(CCC4(C)C3CC=C3C5CC(C)(C)CCC5(C(=O)O)CC[C@]34C)C2(C)C)C(OC2OC(CO)C(O)C(O)C2O)C(OC2OC(CO)C(O)C(O)C2O)C1O` (stereo partly specified), the GI50 is 21.8 µM and the TGI was 38.1 µM.
In the case of `Cn1cc(C2=C(c3cn(C)c4ncccc34)C(=O)NC2=O)c2ccccc21`, the GI50 is over 21.2 µM and the TGI was over 25 µM.
With `COc1cc(Cc2cnc(/N=C3\C(=O)N(CN4CCN(c5c(F)cc6c(=O)c(C(=O)O)cn(C7CC7)c6c5OC)CC4C)c4ccc(F)cc43)nc2N)cc(OC)c1OC` (stereo unspecified), the GI50 is 12.6 µM and the TGI was 26.1 µM.
Compound `Clc1cc2nsnc2c(Cl)n1` yielded a TGI of over 100 µM.
Turning to `COc1cc(/C=N/NC(=O)c2ccc(C(F)(F)F)nc2Nc2ccc(Cl)cc2C)ccc1O`, the GI50 was 1.98 µM and the TGI is 8.45 µM.
In turn, `COC1CCC2C(NS(=O)(=O)c3ccc(C)cc3)CCCC2O1` (stereo unspecified) (tested in a mixture with another compound) returned a TGI of over 34.5 µM.
Compound `NNC(=O)Nc1cccnc1` yielded a TGI of over 100 µM.
Still for that read-out and setting: for `O=S1(=O)c2ccccc2NC(c2ccc3ccccc3c2)CC1c1ccccc1F` (stereo unspecified) the value was over 100 µM.
As to `CCCCCN(CCCCC)CCCNc1c2c(nc3ccc(Cl)cc13)CCCC2`, the GI50 was 2.48 µM and the TGI came out at 8.89 µM.

The next assay relates to HCT-116 colon. Nature of the assay: NCI tumour cell line growth inhibition, 48 h.
The compound `O=C(O)c1ccccc1[Se][Se]c1ccccc1C(=O)O` returned a TGI of over 100 µM.
On the same count and under the same terms, for `CC(C)=CC(=O)C1c2cccc(O)c2C(=O)c2c(O)cc(C)cc21` (stereo unspecified) the value was 6.39 µM; for `O=C(O)CCc1coc2ccc(O)cc12`, over 100 µM.
In the case of `O=C(Nc1ccccc1)NS(=O)(=O)c1ccc(-n2nc3c(c2-c2cccs2)Cc2ccccc2-3)cc1`, the GI50 is 9.13 µM and the TGI turned out to be 21.3 µM.
On to `O=CC[C@H]1C(=O)C[C@@H]2CCC[C@@H]21`, for which the TGI was over 100 µM.
On the same count and under the same terms, the value for `O=C(N/C(=C\c1ccc(/C=C(\NC(=O)c2ccccc2)c2nc3cc([N+](=O)[O-])ccc3[nH]2)cc1)c1nc2cc([N+](=O)[O-])ccc2[nH]1)c1ccccc1` was over 100 µM; that for `COC1(OC)CCC2C1C1CCC(OC)(OC)C21` (stereo unspecified) was over 50 µM.
Turning to `C=C(CN1CCN(c2ccc(Cl)cc2F)CC1)c1ccc(C(=O)Nc2ccccc2N)cc1`, the GI50 is 1.85 µM and the TGI is over 94.2 µM.
The compound `COc1cc2c(cc1OC)-c1c3cc(O)ccc3nn[n+]1CC2` displayed a TGI of over 100 µM.
Same read-out and setting: for `CCCCC(=O)OCC(=O)[C@]1(O)Cc2c(O)c3c(c(O)c2[C@@H](OC2CC(NC(=O)C(F)(F)F)C(O)C(C)O2)C1)C(=O)c1c(OC)cccc1C3=O` (stereo partly specified) the value was 2.91 µM.
The compound `C/C(CC(=O)CCC(=O)Nc1cccc(C(F)(F)F)c1)=N\NC(=O)NN` yielded a TGI of over 100 µM.
On to `CCN(CCO)CC1CCCC2CCCCC21` (stereo unspecified), for which the TGI was over 100 µM.
Still for that read-out and setting: the value for `COc1ccccc1C12OC(=O)C1(C)Oc1ccccc1C2=O` (stereo unspecified) was over 100 µM; that for `O=C1C=C(Cl)C(=O)C(c2ccc(Cl)cc2)=C1` was 38.1 µM.
As to `CCCCOC(=O)C1OC(O[C@H]2CCC3(C)C(CCC4(C)C3CC=C3C5CC(C)(C)CCC5(C(=O)O)CC[C@]34C)C2(C)C)C(OC2OC(CO)C(O)C(O)C2O)C(OC2OC(CO)C(O)C(O)C2O)C1O` (stereo partly specified), the GI50 is 20.6 µM and the TGI is 42.7 µM.
The like results for `Cn1cc(C2=C(c3cn(C)c4ncccc34)C(=O)NC2=O)c2ccccc21` were, in that order, 8.39 µM and over 25 µM.
On to `COc1cc(Cc2cnc(/N=C3\C(=O)N(CN4CCN(c5c(F)cc6c(=O)c(C(=O)O)cn(C7CC7)c6c5OC)CC4C)c4ccc(F)cc43)nc2N)cc(OC)c1OC` (stereo unspecified), for which the GI50 is 7.78 µM and the TGI worked out at 20.6 µM.
The like results for `COc1cc(/C=N/NC(=O)c2ccc(C(F)(F)F)nc2Nc2ccc(Cl)cc2C)ccc1O` were, in that order, 2.95 µM and 12.7 µM.
Compound `COC1CCC2C(NS(=O)(=O)c3ccc(C)cc3)CCCC2O1` (stereo unspecified) (tested in a mixture with another compound) gave a TGI of 15.8 µM.
`NNC(=O)Nc1cccnc1` registered a TGI of over 100 µM.
Turning to `CCCCCN(CCCCC)CCCNc1c2c(nc3ccc(Cl)cc13)CCCC2`, the GI50 was 0.88 µM and the TGI is 2.9 µM.

For the next assay, the system named is IGROV1 ovarian. Nature of the assay: NCI tumour cell line growth inhibition, 48 h.
On to `O=C(O)c1ccccc1[Se][Se]c1ccccc1C(=O)O`, for which the TGI is over 100 µM.
On to `CC(C)=CC(=O)C1c2cccc(O)c2C(=O)c2c(O)cc(C)cc21` (stereo unspecified), for which the TGI was 4.76 µM.
Still for that read-out and setting: for `O=C(O)CCc1coc2ccc(O)cc12` the value was over 100 µM.
Consider `O=C(Nc1ccccc1)NS(=O)(=O)c1ccc(-n2nc3c(c2-c2cccs2)Cc2ccccc2-3)cc1`, for which the GI50 is 21.4 µM and the TGI was over 100 µM.
With `Cc1ccc(N=Nc2ccc(N(CCC#N)CCC#N)cc2C)c(Br)c1`, the TGI was over 100 µM.
As for `O=CC[C@H]1C(=O)C[C@@H]2CCC[C@@H]21`, the TGI was over 100 µM.
The same measure, in the same setting: the value for `O=C(N/C(=C\c1ccc(/C=C(\NC(=O)c2ccccc2)c2nc3cc([N+](=O)[O-])ccc3[nH]2)cc1)c1nc2cc([N+](=O)[O-])ccc2[nH]1)c1ccccc1` was over 100 µM; that for `COC1(OC)CCC2C1C1CCC(OC)(OC)C21` (stereo unspecified) was over 50 µM.
`C=C(CN1CCN(c2ccc(Cl)cc2F)CC1)c1ccc(C(=O)Nc2ccccc2N)cc1`: the GI50 is 1.16 µM and the TGI is 14.8 µM.
With `COc1cc2c(cc1OC)-c1c3cc(O)ccc3nn[n+]1CC2`, the TGI is over 100 µM.
On the same count and under the same terms, for `CCCCC(=O)OCC(=O)[C@]1(O)Cc2c(O)c3c(c(O)c2[C@@H](OC2CC(NC(=O)C(F)(F)F)C(O)C(C)O2)C1)C(=O)c1c(OC)cccc1C3=O` (stereo partly specified) the value was 17 µM; for `C/C(CC(=O)CCC(=O)Nc1cccc(C(F)(F)F)c1)=N\NC(=O)NN`, over 100 µM; for `CCN(CCO)CC1CCCC2CCCCC21` (stereo unspecified), over 100 µM.
